Data: patent US8354414B2, “Substituted bicyclic pyrimidines” (Cephalon, Inc, priority 2006, dated 2013)
Where a name gives a salt, the structure may show the parent alone. Read-outs that look alike come from different tables or passages of the source.

How the values were obtained:
CDK5/GST-p25 = target: T1, CDK5/GST-p25 (Homo sapiens, UniProt Q00535); test: Inhibition of CDK5/GST-p25 kinase activity (ELISA with time-resolved fluorescence readout); format: biochemical
T1 construct: The final construct, encoding for full-length human CDK5; made in house; host or cells: Sf21 insect cells (baculovirus co-infection)
T1 sequence (Q00535 whole entry): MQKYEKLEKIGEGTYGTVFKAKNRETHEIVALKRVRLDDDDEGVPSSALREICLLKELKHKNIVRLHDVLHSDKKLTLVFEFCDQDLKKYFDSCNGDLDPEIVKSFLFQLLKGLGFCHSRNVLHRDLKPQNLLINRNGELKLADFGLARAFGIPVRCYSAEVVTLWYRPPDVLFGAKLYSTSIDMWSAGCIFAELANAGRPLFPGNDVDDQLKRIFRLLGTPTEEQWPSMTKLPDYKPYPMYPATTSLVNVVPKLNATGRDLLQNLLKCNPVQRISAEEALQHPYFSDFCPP
T1 sequence (Q15078 108-307 partner limits assumed): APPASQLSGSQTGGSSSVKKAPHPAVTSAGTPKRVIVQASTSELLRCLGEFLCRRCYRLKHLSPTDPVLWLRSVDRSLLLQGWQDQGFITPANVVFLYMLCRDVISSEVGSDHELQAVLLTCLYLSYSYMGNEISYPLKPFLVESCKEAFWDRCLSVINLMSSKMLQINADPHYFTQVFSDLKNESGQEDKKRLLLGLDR
How it was run: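 The substrate, GST-Rb(773-928), was immobilised on plates and phosphorylated for 20 min at 37 °C by 2 ng/ml CDK5/GST-p25 in HEPES pH 7.2 with 10 µM ATP and 10 mM MgCl2. Both proteins were human and co-expressed in insect cells. Ser-780 phosphorylation was read by europium time-resolved fluorescence and converted to IC50.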

His6-GSK-3β = target: T2, His6-GSK-3β (Homo sapiens, UniProt P49841); test: Inhibition of His6-GSK-3β kinase activity (ELISA-based format, time-resolved fluorescence readout); format: biochemical; details: read-out: GSK3β IC50
T2 construct: made in house; host or cells: Sf21 insect cells (baculovirus)
T2 sequence (P49841 2-419): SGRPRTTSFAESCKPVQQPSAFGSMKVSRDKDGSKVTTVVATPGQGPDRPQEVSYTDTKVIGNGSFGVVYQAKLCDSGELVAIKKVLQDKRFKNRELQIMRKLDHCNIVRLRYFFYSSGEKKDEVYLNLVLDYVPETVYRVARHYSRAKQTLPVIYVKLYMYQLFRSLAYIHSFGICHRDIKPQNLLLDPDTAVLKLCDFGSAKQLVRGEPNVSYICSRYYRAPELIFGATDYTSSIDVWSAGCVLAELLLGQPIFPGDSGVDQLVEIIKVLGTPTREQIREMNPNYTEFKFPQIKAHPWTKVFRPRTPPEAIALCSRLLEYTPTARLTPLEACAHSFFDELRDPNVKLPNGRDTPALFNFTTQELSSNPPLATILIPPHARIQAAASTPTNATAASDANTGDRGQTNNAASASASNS
How it was run: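 Plate-bound recombinant GST-Rb substrate was phosphorylated for 30 min at 37° C by baculovirus-expressed His6-GSK-3β (200 ng/ml) at 20 μM ATP, 10 mM MgCl2, 2.5% DMSO. Europium time-resolved fluorescence of anti-phospho-Ser780 Rb signal gave inhibition, fitted to IC50.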

SMILES	IC50 (CDK5/GST-p25; class symbols)	IC50 (His6-GSK-3β; class symbols)	IC50 (His6-GSK-3β; numeric bounds)	IC50 (CDK5/GST-p25; numeric bounds)
O=C1Nc2ccc(Br)cc2C1c1nc(NCc2cccnc2)nc2c1CCC2 (stereo not shown) [Example 337, 5-Bromo-3-{2-[(pyridin-3-ylmethyl)-amino]-6,7-dihydro-5H-cyclopentapyrimidin-4-yl}-1,3-dihydro-indol-2-one]	0.3 to 3 µM	0.3 to 3 µM		
O=C1Nc2ccc(Br)cc2C1c1nc(NCc2ccncc2)nc2c1CCC2 (stereo not shown) [Example 336, 5-Bromo-3-{2-[(pyridin-4-ylmethyl)-amino]-6,7-dihydro-5H-cyclopentapyrimidin-4-yl}-1,3-dihydro-indol-2-one]	> 10 µM		> 3 µM	
O=C1Nc2ccc(Br)cc2C1c1nc(NCc2ccncc2)nc2nn(C3CCCC3)cc12 (stereo not shown) [Example 180, 5-Bromo-3-{2-cyclopentyl-6-[(pyridin-4-ylmethyl)-amino]-2H-pyrazolo[3,4-d]pyrimidin-4-yl}-1,3-dihydro-1H-indol-2-one]	< 0.3 µM	< 0.3 µM		
Cn1cc2c(C3C(=O)Nc4ccc(Cl)cc43)ncnc2n1 (stereo not shown) [Example 83, 5-Chloro-3-(2-methyl-2H-pyrazolo[3,4-d]pyrimidin-4-yl)-1,3-dihydro-indol-2-one]	< 0.3 µM	0.3 to 3 µM		
CNc1nc(C2C(=O)Nc3ccc(C#N)cc32)c2cn(C3CCCC3)nc2n1 (stereo not shown) [Example 115, 3-(2-cyclopentyl-6-methylamino-2H-pyrazolo[3,4-d]pyrimidin-4-yl)-2-oxo-2,3-dihydro-1H-indole-5-carbonitrile]	< 0.3 µM	< 0.3 µM		
COc1ccc2c(c1)C(c1ncnc3nn(C4CCCCC4)cc13)C(=O)N2 (stereo not shown) [Example 52, 3-(2-Cyclohexyl-2H-pyrazolo[3,4-d]pyrimidin-4-yl)-5-methoxy-1,3-dihydro-indol-2-one]	0.3 to 3 µM	0.3 to 3 µM		
CCCn1cc2c(C3C(=O)Nc4ccc(C)cc43)nc(NCCCOC)nc2n1 (stereo not shown) [Example 310, 3-[6-(3-Methoxy-propylamino)-2-propyl-2H-pyrazolo[3,4-d]pryrimidin-4-yl]-5-methyl-1,3-dihydro-indol-2-one]	0.3 to 3 µM	0.3 to 3 µM		
Cn1cc2c(C3C(=O)Nc4ccc(Br)cc43)nc(NCCc3cccnc3)nc2n1 (stereo not shown) [Example 305, 5-Bromo-3-[2-methyl-6-(2-pyridin-3-yl-ethylamino)-2H-pyrazolo [3,4-d]pyrimidin-4-yl]-1,3-dihydro-indol-2-one]	< 0.3 µM	< 0.3 µM		
N#Cc1ccc2c(c1)C(c1nc(NCc3ccncc3)nc3nn(C4CCCC4)cc13)C(=O)N2 (stereo not shown) [Example 176, 3-{2-Cyclopentyl-6-[(pyridin-4-ylmethyl)-amino]-2H-pyrazolo[3,4-d]pyrimidin-4-yl}-2-oxo-2,3-dihydro-1H-indole-5-carbonitrile]	< 0.3 µM	< 0.3 µM		
CNCCCNc1nc(C2C(=O)Nc3ccc(C(F)(F)F)cc32)c2cn(C3CCCC3)nc2n1 (stereo not shown) [Example 253, 3-[2-Cyclopentyl-6-(3-methylamino-propylamino)-2H-pyrazolo [3,4-d]pyrimidin-4-yl]-5-trifluoromethyl-1,3-dihydro-indol-2-one hydrochloride salt]	0.3 to 3 µM	< 0.3 µM		
CN1CCN(c2nc(C3C(=O)Nc4ccc(C#N)cc43)c3cn(C4CCCC4)nc3n2)CC1 (stereo not shown) [Example 117, 3-(2-cyclopentyl-6-(4-methyl-piperazin-1-yl)-2H-pyrazolo[3,4-d]pyrimidin-4-yl)-2-oxo-2,3-dihydro-1H-indole-5-carbonitrile]	3 to 10 µM	< 0.3 µM		
CN1CCN(c2ccc(Nc3nc(C4C(=O)Nc5ccc(C#N)cc54)c4cn(C5CCCC5)nc4n3)cn2)CC1 (stereo not shown) [Example 137, 3-{2-cyclopentyl-6-[6-(4-methyl-piperazin-1-yl)-pyridin-3-yl-amino]-2H-pyrazolo [3,4-d]pyrimidin-4-yl}-2-oxo-2,3-dihydro-1H-indole-5-carbonitrile]	> 10 µM	< 0.3 µM		
CC(C)Cn1cc2c(C3C(=O)Nc4ccc(Cl)cc43)nc(Cl)nc2n1 (stereo not shown) [Example 273, 5-Chloro-3-(6-chloro-2-isobutyl-2H-pyrazolo [3,4-d]pyrimidin-4-yl)-1,3-dihydro-indol-2-one]	> 10 µM		> 3 µM	
N#Cc1ccc2c(c1)C(c1nc(O)nc3nn(C4CCCC4)cc13)C(=O)N2 (stereo not shown) [Example 120, 3-(2-cyclopentyl-6-hydroxy-2H-pyrazolo [3,4-d]pyrimidin-4-yl)-2-oxo-2,3-dihydro-1H-indole-5-carbonitrile]	> 10 µM	< 0.3 µM		
N#Cc1ccc2c(c1)C(c1nc(NCCN3CCSCC3)nc3nn(C4CCCC4)cc13)C(=O)N2 (stereo not shown) [Example 178, 3-[2-Cyclopentyl-6-(2-thiomorpholin-4-yl-ethylamino)-2H-pyrazolo[3,4-d]pyrimidin-4-yl]-2-oxo-2,3-dihydro-1H-indole-5-carbonitrile]	0.3 to 3 µM	< 0.3 µM		
CN(C)CCNc1nc(C2C(=O)Nc3ccc(C#N)cc32)c2cn(C3CCCC3)nc2n1 (stereo not shown) [Example 119, 3-(2-cyclopentyl-6-(2-dimethylamino-ethylamino)-2H-pyrazolo [3,4-d]pyrimidin-4-yl)-2-oxo-2,3-dihydro-1H-indole-5-carbonitrile]	0.3 to 3 µM	< 0.3 µM		
N#Cc1ccc2c(c1)C(c1nc(N3CCCC3)nc3nn(C4CCCC4)cc13)C(=O)N2 (stereo not shown) [Example 132, 3-(2-cyclopentyl-6-pyrrolidin-1-yl-2H-pyrazolo [3,4-d]pyrimidin-4-yl)-2-oxo-2,3-dihydro-1H-indole-5-carbonitrile]	> 10 µM	< 0.3 µM		
N#Cc1ccc2c(c1)C(c1nc(NCCN3CCCC3)nc3nn(C4CCCC4)cc13)C(=O)N2 (stereo not shown) [Example 136, 3-[2-cyclopentyl-6-(2-pyrrolidin-1-yl-ethylamino)-2H-pyrazolo[3,4-d]pyrimidin-4-yl]-2-oxo-2,3-dihydro-1H-indole-5-carbonitrile]		< 0.3 µM		> 3 µM
COc1ccc(Nc2nc3c(c(C4C(=O)Nc5ccc(C#N)cc54)n2)CCC3)cn1 (stereo not shown) [Example 352, 3-[2-(6-Methoxy-pyridin-3-ylamino)-6,7-dihydro-5H-cyclopentapyrimidin-4-yl]-2-oxo-2,3-dihydro-1H-indole-5-carbonitrile]	> 10 µM	> 10 µM		

Continued, values first:

IC50 (CDK5/GST-p25; class symbols)	IC50 (His6-GSK-3β; class symbols)	IC50 (His6-GSK-3β; numeric bounds)	IC50 (CDK5/GST-p25; numeric bounds)	SMILES
> 10 µM	> 10 µM			CN(C)CCNc1nc2c(c(C3C(=O)Nc4ccc(Cl)cc43)n1)CCC2 (stereo not shown) [Example 323, 5-Chloro-3-[2-(2-dimethylamino-ethylamino)-6,7-dihydro-5H-cyclopentapyrimidin-4-yl]-1,3-dihydro-indol-2-one]
> 10 µM	< 0.3 µM			O=C1Nc2ccc(Cl)cc2C1c1nc(N2CCOCC2)nc2nn(C3CCCC3)cc12 (stereo not shown) [Example 143, 5-Chloro-3-(2-cyclopentyl-6-morpholin-4-yl-2H-pyrazolo [3,4-d]pyrimidin-4-yl)-1,3-dihydro-indol-2-one]
	> 10 µM		> 3 µM	O=C1Nc2ccc(F)cc2C1c1nc(NCc2ccccn2)nc2c1CCC2 (stereo not shown) [Example 322, 5-Fluoro-3-{2-[(pyridin-2-ylmethyl)-amino]-6,7-dihydro-5H-cyclopentapyrimidin-4-yl}-1,3-dihydro-indol-2-one]
> 10 µM	0.3 to 3 µM			O=C1Nc2ccc(Cl)cc2C1c1nc(NCc2ccncc2)nc2c1CCC2 (stereo not shown) [Example 326, 5-Chloro-3-{2-[(pyridin-4-ylmethyl)-amino]-6,7-dihydro-5H-cyclopentapyrimidin-4-yl}-1,3-dihydro-indol-2-one]
> 10 µM	> 10 µM			CCOCCNc1nc2c(c(C3C(=O)Nc4ccc(Cl)cc43)n1)CCC2 (stereo not shown) [Example 325, 5-Chloro-3-[2-(2-ethoxy-ethylamino)-6,7-dihydro-5H-cyclopentapyrimidin-4-yl]-1,3-dihydro-indol-2-one]
< 0.3 µM	< 0.3 µM			N#Cc1ccc2c(c1)C(c1nc(NCCN3CCOCC3)nc3nn(C4CCCC4)cc13)C(=O)N2 (stereo not shown) [Example 177, 3-[2-Cyclopentyl-6-(2-morpholin-4-yl-ethylamino)-2H-pyrazolo[3,4-d]pyrimidin-4-yl]-2-oxo-2,3-dihydro-1H-indole-5-carbonitrile]
		> 3 µM	> 3 µM	O=C1Nc2ccc(Cl)cc2C1c1nc(NCCN2CCOCC2)nc2c1CCC2 (stereo not shown) [Example 324, 5-Chloro-3-[2-(2-morpholin-4-yl-ethylamino)-6,7-dihydro-5H-cyclopentapyrimidin-4-yl]-1,3-dihydro-indol-2-one]
0.3 to 3 µM	0.3 to 3 µM			N#Cc1ccc2c(c1)C(c1nc(NCCN3CCOCC3)nc3c1CCC3)C(=O)N2 (stereo not shown) [Example 341, 3-[2-(2-Morpholin-4-yl-ethylamino)-6,7-dihydro-5H-cyclopentapyrimidin-4-yl]-2-oxo-2,3-dihydro-1H-indole-5-carbonitrile]
> 10 µM	0.3 to 3 µM			CN1CCN(c2nc3c(c(C4C(=O)Nc5ccc(C#N)cc54)n2)CCC3)CC1 (stereo not shown) [Example 353, 3-[2-(4-Methyl-piperazin-1-yl)-6,7-dihydro-5H-cyclopentapyrimidin-4-yl]-2-oxo-2,3-dihydro-1H-indole-5-carbonitrile]
> 10 µM	> 10 µM			O=C1Nc2ccc(Cl)cc2C1c1nc(Cl)nc2c1CCC2 (stereo not shown) [Example 316, 5-Chloro-3-(2-chloro-6,7-dihydro-5H-cyclopentapyrimidin-4-yl)-1,3-dihydro-inodol-2-one]
